These are literature values, as cited in PMC3433420 (PLoS ONE, 2012).

The target in the data set is SH2 and PTB domains. Conditions: cited from earlier work. From the text: Supplement pone.0044471.s022.xlsx, sheet "Most recent PM interactions" | column: Kd || Supplement pone.0044471.s022.xlsx, sheet "All original PM interactions" | column: Kd
Setting [1] is: protein ABL2, ref Jones et al. 2006 / Kaushansky et al. Mol Biosys 2008 / Kaushansky et al. Chem and Biol 2008.
Where [2] appears, read: protein BLK, ref Jones et al. 2006 / Kaushansky et al. Mol Biosys 2008 / Kaushansky et al. Chem and Biol 2008.
[3] abbreviates: protein GRB10, ref Jones et al. 2006 / Kaushansky et al. Mol Biosys 2008 / Kaushansky et al. Chem and Biol 2008.
[4] abbreviates: protein ITK, ref Jones et al. 2006 / Kaushansky et al. Mol Biosys 2008 / Kaushansky et al. Chem and Biol 2008.
Setting [5] is: protein PIK3R1-NC, ref Jones et al. 2006 / Kaushansky et al. Mol Biosys 2008 / Kaushansky et al. Chem and Biol 2008.
Setting [6] is: protein PIK3R3-NC, ref Jones et al. 2006 / Kaushansky et al. Mol Biosys 2008 / Kaushansky et al. Chem and Biol 2008.
Setting [7] is: protein RASA1-N, ref Jones et al. 2006 / Kaushansky et al. Mol Biosys 2008 / Kaushansky et al. Chem and Biol 2008.
Setting [8] is: protein RASA1-NC, ref Jones et al. 2006 / Kaushansky et al. Mol Biosys 2008 / Kaushansky et al. Chem and Biol 2008.
Setting [9] is: protein SH2B3, ref Jones et al. 2006 / Kaushansky et al. Mol Biosys 2008 / Kaushansky et al. Chem and Biol 2008.
The mark [10] stands for this setting: protein SH2B, ref Jones et al. 2006 / Kaushansky et al. Mol Biosys 2008 / Kaushansky et al. Chem and Biol 2008.
Setting [11] is: protein SH2D3C, ref Jones et al. 2006 / Kaushansky et al. Mol Biosys 2008 / Kaushansky et al. Chem and Biol 2008.
[12] abbreviates: protein SHC1-PTB, ref Jones et al. 2006 / Kaushansky et al. Mol Biosys 2008 / Kaushansky et al. Chem and Biol 2008.
The mark [13] stands for this setting: protein SHC2-PTB, ref Jones et al. 2006 / Kaushansky et al. Mol Biosys 2008 / Kaushansky et al. Chem and Biol 2008.
Setting [14] is: protein SLA, ref Jones et al. 2006 / Kaushansky et al. Mol Biosys 2008 / Kaushansky et al. Chem and Biol 2008.
Setting [15] is: protein SRC, ref Jones et al. 2006 / Kaushansky et al. Mol Biosys 2008 / Kaushansky et al. Chem and Biol 2008.
Where [16] appears, read: protein SYK-NC, ref Jones et al. 2006 / Kaushansky et al. Mol Biosys 2008 / Kaushansky et al. Chem and Biol 2008.
The mark [17] stands for this setting: protein TNS4, ref Jones et al. 2006 / Kaushansky et al. Mol Biosys 2008 / Kaushansky et al. Chem and Biol 2008.
The mark [18] stands for this setting: protein YES1, ref Jones et al. 2006 / Kaushansky et al. Mol Biosys 2008 / Kaushansky et al. Chem and Biol 2008.
The mark [19] stands for this setting: protein ABL2, ref Jones et al. 2006 / Kaushansky et al. Chem and Biol 2008.
[20] abbreviates: protein SHC1-PTB, ref Jones et al. 2006 / Kaushansky et al. Chem and Biol 2008.

Read-outs that look alike come from different tables or passages of the source.

Usually Kd stands for the free concentration of one partner at which half of the binding sites on the other are occupied at equilibrium, for simple one-to-one binding. For the substance “DNPDpYQQDFFPKd [ErbB1 pY1172, N-terminally rhodamine-labeled 13-mer phosphopeptide]”, the Kd is, setting by setting: under setting [1], 490 nM; (protein BCAR3, ref Jones et al. 2006 / Kaushansky et al. Mol Biosys 2008 / Kaushansky et al. Chem and Biol 2008) 300 nM; under setting [2], 750 nM; (protein CRK, ref Jones et al. 2006 / Kaushansky et al. Mol Biosys 2008 / Kaushansky et al. Chem and Biol 2008) 410 nM; (protein FGR, ref Jones et al. 2006 / Kaushansky et al. Mol Biosys 2008 / Kaushansky et al. Chem and Biol 2008) 550 nM; under setting [3], 1290 nM. Besides, the Kd by setting is: (protein GRB14, ref Jones et al. 2006 / Kaushansky et al. Mol Biosys 2008 / Kaushansky et al. Chem and Biol 2008) 1250 nM; under setting [4], 1410 nM; (protein LYN, ref Jones et al. 2006 / Kaushansky et al. Mol Biosys 2008 / Kaushansky et al. Chem and Biol 2008) 1590 nM; (protein NCK2, ref Jones et al. 2006 / Kaushansky et al. Mol Biosys 2008 / Kaushansky et al. Chem and Biol 2008) 380 nM; (protein PIK3R1-N, ref Jones et al. 2006 / Kaushansky et al. Mol Biosys 2008 / Kaushansky et al. Chem and Biol 2008) 400 nM; under setting [5], 550 nM. Also, the Kd (protein PIK3R2-N, ref Jones et al. 2006 / Kaushansky et al. Mol Biosys 2008 / Kaushansky et al. Chem and Biol 2008) was 390 nM; the Kd (protein PIK3R2-NC, ref Jones et al. 2006 / Kaushansky et al. Mol Biosys 2008 / Kaushansky et al. Chem and Biol 2008) was 320 nM; the Kd under setting [6] was 850 nM; the Kd (protein PLCG2-N, ref Jones et al. 2006 / Kaushansky et al. Mol Biosys 2008 / Kaushansky et al. Chem and Biol 2008) was 840 nM; the Kd (protein PLCG2-NC, ref Jones et al. 2006 / Kaushansky et al. Mol Biosys 2008 / Kaushansky et al. Chem and Biol 2008) was 670 nM; the Kd under setting [7] is 1140 nM. Moreover, the Kd reads like this: under setting [8], 1170 nM; under setting [9], 1600 nM; under setting [10], 1820 nM; under setting [11], 1910 nM; (protein SHB, ref Jones et al. 2006 / Kaushansky et al. Mol Biosys 2008 / Kaushansky et al. Chem and Biol 2008) 1790 nM; under setting [12], 40 nM. For the same substance, the Kd runs as follows: under setting [13], 1310 nM; under setting [14], 2000 nM; under setting [15], 470 nM; (protein SUPT6H, ref Jones et al. 2006 / Kaushansky et al. Mol Biosys 2008 / Kaushansky et al. Chem and Biol 2008) 1030 nM; (protein SYK-C, ref Jones et al. 2006 / Kaushansky et al. Mol Biosys 2008 / Kaushansky et al. Chem and Biol 2008) 870 nM; under setting [16], 1280 nM. Moreover, the Kd runs as follows: (protein TNS3, ref Jones et al. 2006 / Kaushansky et al. Mol Biosys 2008 / Kaushansky et al. Chem and Biol 2008) 740 nM; under setting [17], 330 nM; (protein VAV2, ref Jones et al. 2006 / Kaushansky et al. Mol Biosys 2008 / Kaushansky et al. Chem and Biol 2008) 220 nM; (protein VAV3, ref Jones et al. 2006 / Kaushansky et al. Mol Biosys 2008 / Kaushansky et al. Chem and Biol 2008) 2000 nM; under setting [18], 100 nM.

Turning to “DNPDpYWHSRLFPd [ErbB3 pY1328, N-terminally rhodamine-labeled 13-mer phosphopeptide]”, the Kd is 600 nM under setting [19]; 1700 nM (protein HSH2D, ref Jones et al. 2006 / Kaushansky et al. Chem and Biol 2008); 1870 nM (protein MATK, ref Jones et al. 2006 / Kaushansky et al. Chem and Biol 2008); 1900 nM (protein NCK2, ref Jones et al. 2006 / Kaushansky et al. Chem and Biol 2008); 1920 nM (protein RASA1-NC, ref Jones et al. 2006 / Kaushansky et al. Chem and Biol 2008); 220 nM under setting [20]. Besides, the Kd by setting is: (protein SYK-NC, ref Jones et al. 2006 / Kaushansky et al. Chem and Biol 2008) 1980 nM; (protein TENC1, ref Jones et al. 2006 / Kaushansky et al. Chem and Biol 2008) 1250 nM; (protein TNS4, ref Jones et al. 2006 / Kaushansky et al. Chem and Biol 2008) 850 nM.

As for “DNPDpYWNHSLPPd [ErbB4 pY1242, N-terminally rhodamine-labeled 13-mer phosphopeptide]”, the Kd was 34 nM (protein ABL2, ref Kaushansky et al. Chem and Biol 2008); 510 nM (protein SHC1-PTB, ref Kaushansky et al. Chem and Biol 2008).

Turning to “DNPEpYHNASNGPd [ErbB4 pY1188, N-terminally rhodamine-labeled 13-mer phosphopeptide]”, the dissociation constant (Kd) (protein ABL1, all original PM interactions, ref Jones et al. 2006 / Kaushansky et al. Chem and Biol 2008) is 1820 nM; the Kd (protein ABL2, all original PM interactions, ref Jones et al. 2006 / Kaushansky et al. Chem and Biol 2008) is 760 nM; the Kd under setting [19] was 35 nM; the Kd (protein NCK2, all original PM interactions, ref Jones et al. 2006 / Kaushansky et al. Chem and Biol 2008) is 2000 nM; the Kd (protein PIK3R3-NC, all original PM interactions, ref Jones et al. 2006 / Kaushansky et al. Chem and Biol 2008) was 2000 nM; the Kd (protein SHC1-PTB, all original PM interactions, ref Jones et al. 2006 / Kaushansky et al. Chem and Biol 2008) is 280 nM. Moreover, the Kd under setting [20] was 720 nM.

In the case of “DSNFpYRALMDEEd [ErbB1 pY998, N-terminally rhodamine-labeled 13-mer phosphopeptide]”, the Kd under setting [1] is 2000 nM; the Kd under setting [2] is 190 nM; the Kd (protein FES, ref Jones et al. 2006 / Kaushansky et al. Mol Biosys 2008 / Kaushansky et al. Chem and Biol 2008) was 1230 nM; the Kd under setting [3] is 2000 nM; the Kd under setting [4] is 280 nM; the Kd (protein LCK, ref Jones et al. 2006 / Kaushansky et al. Mol Biosys 2008 / Kaushansky et al. Chem and Biol 2008) is 2000 nM. Besides, the Kd is 240 nM under setting [5]; 970 nM under setting [6]; 2000 nM (protein PTPN6-NC, ref Jones et al. 2006 / Kaushansky et al. Mol Biosys 2008 / Kaushansky et al. Chem and Biol 2008); 1060 nM under setting [7]; 1380 nM under setting [8]; 1360 nM under setting [9]. The Kd was 2000 nM under setting [10]; 2000 nM (protein SH2D2A, ref Jones et al. 2006 / Kaushansky et al. Mol Biosys 2008 / Kaushansky et al. Chem and Biol 2008); 2000 nM under setting [11]; 1150 nM under setting [12]; 980 nM under setting [13]; 1600 nM under setting [14]. Moreover, the Kd reads like this: (protein SOCS1, ref Jones et al. 2006 / Kaushansky et al. Mol Biosys 2008 / Kaushansky et al. Chem and Biol 2008) 2000 nM; (protein SOCS2, ref Jones et al. 2006 / Kaushansky et al. Mol Biosys 2008 / Kaushansky et al. Chem and Biol 2008) 2000 nM; under setting [15], 1140 nM; under setting [16], 910 nM; under setting [17], 2000 nM; under setting [18], 720 nM. Moreover, the Kd (protein ZAP70-NC, ref Jones et al. 2006 / Kaushansky et al. Mol Biosys 2008 / Kaushansky et al. Chem and Biol 2008) was 1650 nM.
